Assay results published in PMC8213057, “Targeting ALK2: An Open Science Approach to Developing Therapeutics for the Treatment of Diffuse Intrinsic Pontine Glioma” (Journal of Medicinal Chemistry, 2020).

Experiments:
[1] = target: PYK2 (Homo sapiens, UniProt Q14289); assay: biochemical; details: read-out: % enzyme activity, 1 μM; Run 1, Run 2
[2] = target: T1, PKMYT1 (Homo sapiens, UniProt Q99640); assay: biochemical; details: read-out: % enzyme activity, 1 μM; Run 1, Run 2
T1 sequence (Q99640 1-499): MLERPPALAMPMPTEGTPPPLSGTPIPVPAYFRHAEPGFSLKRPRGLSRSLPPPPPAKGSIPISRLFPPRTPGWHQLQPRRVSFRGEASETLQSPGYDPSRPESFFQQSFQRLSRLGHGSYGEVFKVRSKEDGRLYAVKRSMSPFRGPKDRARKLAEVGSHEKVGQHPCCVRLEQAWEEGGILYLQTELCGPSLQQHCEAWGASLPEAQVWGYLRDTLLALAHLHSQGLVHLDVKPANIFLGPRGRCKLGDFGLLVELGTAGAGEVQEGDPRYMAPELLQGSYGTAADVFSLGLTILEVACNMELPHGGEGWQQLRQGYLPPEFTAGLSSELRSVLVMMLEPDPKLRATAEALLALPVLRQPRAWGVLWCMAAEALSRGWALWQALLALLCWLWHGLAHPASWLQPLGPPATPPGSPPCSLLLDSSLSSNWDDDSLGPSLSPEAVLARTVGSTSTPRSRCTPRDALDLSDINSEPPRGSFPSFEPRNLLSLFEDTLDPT

[3] = target: T2, PLK4/SAK (Homo sapiens, UniProt O00444); details: 1 μM; Run 1, Run 2
T2 sequence (O00444 1-970): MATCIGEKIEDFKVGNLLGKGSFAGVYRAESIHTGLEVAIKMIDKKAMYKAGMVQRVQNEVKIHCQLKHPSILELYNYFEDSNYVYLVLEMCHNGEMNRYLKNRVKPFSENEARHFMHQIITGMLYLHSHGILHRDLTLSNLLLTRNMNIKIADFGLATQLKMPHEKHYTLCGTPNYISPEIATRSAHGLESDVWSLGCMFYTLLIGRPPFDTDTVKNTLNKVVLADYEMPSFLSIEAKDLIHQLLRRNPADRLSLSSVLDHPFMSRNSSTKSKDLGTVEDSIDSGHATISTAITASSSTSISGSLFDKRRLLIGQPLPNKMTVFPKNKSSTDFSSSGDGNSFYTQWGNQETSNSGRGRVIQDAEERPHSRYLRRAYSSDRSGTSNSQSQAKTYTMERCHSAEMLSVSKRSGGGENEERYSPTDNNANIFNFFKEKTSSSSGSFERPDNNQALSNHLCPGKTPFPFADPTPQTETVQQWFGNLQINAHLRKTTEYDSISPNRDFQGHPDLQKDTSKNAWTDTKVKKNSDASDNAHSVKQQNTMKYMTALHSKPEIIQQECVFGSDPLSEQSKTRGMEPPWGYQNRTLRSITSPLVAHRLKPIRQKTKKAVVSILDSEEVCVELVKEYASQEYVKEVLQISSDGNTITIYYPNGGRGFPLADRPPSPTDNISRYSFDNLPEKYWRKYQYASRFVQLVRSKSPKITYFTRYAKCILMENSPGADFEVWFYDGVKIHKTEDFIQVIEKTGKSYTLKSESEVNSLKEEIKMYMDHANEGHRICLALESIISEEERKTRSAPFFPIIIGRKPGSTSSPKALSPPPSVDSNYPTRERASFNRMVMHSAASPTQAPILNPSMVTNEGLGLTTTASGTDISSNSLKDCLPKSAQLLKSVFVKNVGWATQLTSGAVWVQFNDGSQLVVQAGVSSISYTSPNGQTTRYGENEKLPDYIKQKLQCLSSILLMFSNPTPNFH

[4] = target: T3, MEKK2 (Homo sapiens, UniProt Q9Y2U5); assay: biochemical; details: read-out: % enzyme activity, 1 μM; Run 1, Run 2
T3 sequence (Q9Y2U5 1-619): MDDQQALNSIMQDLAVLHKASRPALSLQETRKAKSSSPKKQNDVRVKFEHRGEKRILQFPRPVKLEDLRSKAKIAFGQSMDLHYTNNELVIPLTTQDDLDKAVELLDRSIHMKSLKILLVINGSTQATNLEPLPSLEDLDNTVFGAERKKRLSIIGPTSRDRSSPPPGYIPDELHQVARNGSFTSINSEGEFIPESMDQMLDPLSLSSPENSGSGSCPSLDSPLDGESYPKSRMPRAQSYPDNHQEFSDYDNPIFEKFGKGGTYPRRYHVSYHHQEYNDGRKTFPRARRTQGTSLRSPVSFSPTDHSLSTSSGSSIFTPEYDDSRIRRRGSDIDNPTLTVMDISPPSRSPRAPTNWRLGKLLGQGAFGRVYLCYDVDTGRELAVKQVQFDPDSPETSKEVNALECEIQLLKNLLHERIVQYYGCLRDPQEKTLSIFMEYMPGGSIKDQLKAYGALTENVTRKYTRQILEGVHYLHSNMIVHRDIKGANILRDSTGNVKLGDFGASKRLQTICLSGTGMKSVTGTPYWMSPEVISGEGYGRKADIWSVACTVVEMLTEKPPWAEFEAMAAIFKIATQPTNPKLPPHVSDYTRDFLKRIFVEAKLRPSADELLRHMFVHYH

[5] = target: T4, PKCiota (Homo sapiens, UniProt P41743); assay: biochemical; details: read-out: % enzyme activity, 1 μM; Run 1, Run 2
T4 sequence (P41743 1-596): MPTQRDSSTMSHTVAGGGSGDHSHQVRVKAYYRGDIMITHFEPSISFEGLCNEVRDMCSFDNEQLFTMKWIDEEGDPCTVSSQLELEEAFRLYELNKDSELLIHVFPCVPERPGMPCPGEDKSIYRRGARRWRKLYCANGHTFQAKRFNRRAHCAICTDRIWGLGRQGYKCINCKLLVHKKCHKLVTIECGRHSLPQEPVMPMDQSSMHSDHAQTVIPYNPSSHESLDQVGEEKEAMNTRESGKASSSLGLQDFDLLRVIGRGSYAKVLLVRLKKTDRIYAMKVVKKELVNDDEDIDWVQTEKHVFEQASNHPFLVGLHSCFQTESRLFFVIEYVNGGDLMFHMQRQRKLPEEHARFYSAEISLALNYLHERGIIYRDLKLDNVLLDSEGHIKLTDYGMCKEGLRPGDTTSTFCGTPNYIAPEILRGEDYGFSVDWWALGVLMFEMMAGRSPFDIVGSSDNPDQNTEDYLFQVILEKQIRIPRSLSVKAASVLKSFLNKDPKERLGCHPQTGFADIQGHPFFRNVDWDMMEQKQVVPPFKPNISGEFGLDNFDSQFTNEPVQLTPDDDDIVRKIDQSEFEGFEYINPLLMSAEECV

Chain of PYK2 (Q14289 whole entry): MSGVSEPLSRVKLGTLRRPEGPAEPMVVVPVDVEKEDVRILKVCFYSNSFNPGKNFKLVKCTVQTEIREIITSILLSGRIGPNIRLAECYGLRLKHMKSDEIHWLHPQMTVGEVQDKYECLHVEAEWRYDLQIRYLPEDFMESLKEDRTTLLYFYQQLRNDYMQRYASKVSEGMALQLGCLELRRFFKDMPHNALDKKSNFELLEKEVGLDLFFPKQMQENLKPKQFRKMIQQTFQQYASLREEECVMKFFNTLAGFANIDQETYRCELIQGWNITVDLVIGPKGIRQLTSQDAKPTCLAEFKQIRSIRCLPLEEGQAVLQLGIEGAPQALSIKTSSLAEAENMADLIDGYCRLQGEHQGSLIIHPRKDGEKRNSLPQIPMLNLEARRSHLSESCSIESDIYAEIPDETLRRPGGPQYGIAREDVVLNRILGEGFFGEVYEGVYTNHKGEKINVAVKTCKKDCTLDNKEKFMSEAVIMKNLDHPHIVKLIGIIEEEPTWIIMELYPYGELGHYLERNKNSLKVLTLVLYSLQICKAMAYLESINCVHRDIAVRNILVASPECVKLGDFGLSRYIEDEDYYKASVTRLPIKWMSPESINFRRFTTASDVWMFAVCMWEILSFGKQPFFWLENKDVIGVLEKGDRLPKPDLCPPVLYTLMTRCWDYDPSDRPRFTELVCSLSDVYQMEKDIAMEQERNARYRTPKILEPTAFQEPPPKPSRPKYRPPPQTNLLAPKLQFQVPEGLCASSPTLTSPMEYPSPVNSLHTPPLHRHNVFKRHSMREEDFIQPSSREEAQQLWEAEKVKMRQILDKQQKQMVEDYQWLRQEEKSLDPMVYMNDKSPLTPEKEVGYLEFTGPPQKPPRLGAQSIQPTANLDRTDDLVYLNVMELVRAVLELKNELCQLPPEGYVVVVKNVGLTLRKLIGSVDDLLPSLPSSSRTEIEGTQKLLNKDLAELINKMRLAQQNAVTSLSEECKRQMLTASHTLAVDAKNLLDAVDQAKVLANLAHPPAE

| Compound | remaining activity at 1 µM [1] [%] | remaining activity at 1 µM [2] [%] | % enzyme activity [3] [%] | remaining activity at 1 µM [4] [%] | remaining activity at 1 µM [5] [%] |
| --- | --- | --- | --- | --- | --- |
| COc1cc(-c2cncc(-c3ccc(N4C[C@@H](C)N(C)[C@@H](C)C4)cc3)c2C)cc(F)c1C(N)=O [Compound 26c, 2-Fluoro-6-methoxy-4-(4-methyl-5-(4-((3R,5S)-3,4,5-trimethylpiperazin-1-yl)phenyl)pyridin-3-yl)benzamide] | 88.6 | 94.5 | 98.79 | 98.8 | 99.1 |
| COc1cc(-c2cncc(-c3ccc(N4CCN(C)CC4)cc3)c2C)cc(F)c1C(N)=O [Compound 26a, 2-Fluoro-6-methoxy-4-(4-methyl-5-(4-(4-methylpiperazin-1-yl)phenyl)pyridin-3-yl)benzamide] | 85.9 | 101 | 93.32 | 95 | 107 |
